Test results from patent publication US20220401407A1, “REGULATION OF THE SLEEP/WAKE CYCLE USING C[…]” (Demetrix, Inc., priority 2021, published 2022).
Entries after “also recorded” stand apart in the source; their conditions may differ.

Experiments:
Type in all cases: cell-based
[1] = biological target: T1, HCRTR1 (Homo sapiens, UniProt O43613); assay: PathHunter β-Arrestin GPCR agonist assay, HCRTR1; set-up: concentration or dose not given beside the values; conditions: agonist mode; Orexin A as control
T1 sequence (O43613 1-425): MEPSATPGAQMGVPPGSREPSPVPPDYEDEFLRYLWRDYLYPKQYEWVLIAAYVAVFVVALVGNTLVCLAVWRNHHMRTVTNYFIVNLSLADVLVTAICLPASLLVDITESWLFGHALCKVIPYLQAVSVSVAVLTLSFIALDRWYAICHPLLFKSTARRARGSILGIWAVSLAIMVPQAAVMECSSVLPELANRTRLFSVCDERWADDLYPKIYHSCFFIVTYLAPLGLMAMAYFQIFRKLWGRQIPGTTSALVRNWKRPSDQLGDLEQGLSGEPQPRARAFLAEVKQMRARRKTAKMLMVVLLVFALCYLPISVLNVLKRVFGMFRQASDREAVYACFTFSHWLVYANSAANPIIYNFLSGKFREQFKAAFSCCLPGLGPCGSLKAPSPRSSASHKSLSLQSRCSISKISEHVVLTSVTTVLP
Protocol: (§1) To evaluate the role specific cannabinoid compounds may play on the sleep/wake cycle, a GPCR reactivity assay was performed to determine the reactivity of 19 cannabinoid compounds to the orexin receivers HCRTR1 and HCRTR2. The evaluated cannabinoid compounds were: CBN, THCV, CBDVA, CBG, CBL, CBC, CBDV, CBDA, CBD, CBGA, (+)-CBD, CBG-C4, CBD-C1, CBD-C2, CBGV, CBGA-C4, CBGVA, CBCA, and CBLA. Orexin A was used as the control for HCRTR1 and HCRTR2.
(§2) To perform the GPCR reactivity assay, a commercial GPCR assay, PathHunter® β-Arrestin from Eurofins DiscoverX Products (Fremont, Calif.), was used. […] At activation of the GPCR receptor and recruitment of β-arrestin, complementation of the peptide fragments occurs and restores β-galactosidase activity. The amount of β-galactosidase activity is then measurable using chemiluminescent reagents.
(§3) A total of four assays were run. Agonist assays were run for each of HCRTR1 and HCRTR2 and antagonist assays were run for HCRTR1 and HCRTR2. In each of the two agonist assays, PathHunter® cell lines were removed from a freezer stock and seeded at a volume of 20 μL into white walled, 384-well microplates and incubated at 37° C. Each cell was incubated with a sample to induce a response and then diluted to generate a 5× sample in assay buffer. 5 μL of the 5× sample was then added to cells and incubated at 37° C. for 90 or 180 minutes. The final assay concentration was 1%. The assay signal was generated through addition of 12.5 μL or 15 μL (50% V/V) of a detection reagent cocktail followed by a one hour incubation time at room temperature. Microplates were read following signal generation with a PerkinElmer Envision™ (PerkinElmer Inc., Waltham, Mass.) for chemiluminescent signal detection. Reactivity was analyzed using the CBIS data analysis suite (ChemInnovation, CA) where RLU refers to the raw measured values. The percent activity was then calculated using the formula: % Activity=100%*(mean RLU of test sample−mean RLU of control)/(mean max control ligand−mean RLU of vehicle control).
(§4) For agonist activity, the percent activity is depicted while for antagonist activity, the percent inhibition is depicted.

[2] = biological target: T2, HCRTR2 (Homo sapiens, UniProt O43614); assay: PathHunter β-Arrestin GPCR agonist assay, HCRTR2; set-up: concentration or dose not given beside the values; conditions: agonist mode; Orexin A as control
T2 sequence (O43614 1-444): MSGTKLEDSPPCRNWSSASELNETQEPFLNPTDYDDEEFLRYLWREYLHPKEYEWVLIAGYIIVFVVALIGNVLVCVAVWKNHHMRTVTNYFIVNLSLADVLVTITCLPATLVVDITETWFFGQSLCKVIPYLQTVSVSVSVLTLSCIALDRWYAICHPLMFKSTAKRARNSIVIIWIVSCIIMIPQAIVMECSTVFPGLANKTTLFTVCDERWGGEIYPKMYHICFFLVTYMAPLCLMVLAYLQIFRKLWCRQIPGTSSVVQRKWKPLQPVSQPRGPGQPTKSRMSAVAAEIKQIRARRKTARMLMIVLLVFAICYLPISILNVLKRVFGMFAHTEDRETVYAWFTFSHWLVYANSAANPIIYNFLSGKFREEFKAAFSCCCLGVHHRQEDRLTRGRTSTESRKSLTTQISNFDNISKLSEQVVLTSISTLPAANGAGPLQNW
Protocol: as §1, §2, §3, §4

[3] = biological target: T1, HCRTR1; assay: PathHunter β-Arrestin GPCR antagonist assay, HCRTR1; conditions: for HCRTR1 (Antagonist) percent inhibition: antagonist mode, agonist challenge at EC80
Protocol: as §1, §2
(§5) In each of the two antagonist assays, PathHunter® cell lines were removed from a freezer stock and seeded at a volume of 20 μL into white walled, 384-well microplates and incubated at 37° C. Each cell was pre-incubated with an antagonist followed by an agonist challenge at the EC80 concentration. Cells were then diluted to generate a 5× sample in assay buffer. 5 μL of the 5× sample was then added to cells and incubated at 37° C. for 30 minutes. Finally, 5 μL of 6×EC80 agonist in assay buffer were added to the cells and incubated at 37° C. for 90 minutes or 180 minutes. The assay signal was generated through addition of 12.5 μL or 15 μL (50% V/V) of a detection reagent cocktail followed by a one hour incubation time at room temperature. Microplates were read following signal generation with a PerkinElmer Envision™ (PerkinElmer Inc., Waltham, Mass.) for chemiluminescent signal detection. Reactivity was analyzed using the CBIS data analysis suite (ChemInnovation, CA) where RLU refers to the raw measured values. The percent inhibition was calculated using the formula: % Inhibition=100%*(1−mean RLU of test sample−mean RLU of control)/(mean RLU of EC80 control−mean RLU of vehicle control).
as §4

[4] = biological target: T2, HCRTR2; assay: PathHunter β-Arrestin GPCR antagonist assay, HCRTR2; conditions: for HCRTR2 (Antagonist) percent inhibition: antagonist mode, agonist challenge at EC80
Protocol: as §1, §2, §5, §4

[5] = biological target: dopamine receptor DRD5 (Homo sapiens, UniProt P21918); assay: PathHunter β-Arrestin GPCR agonist assay, DRD5; set-up: DRD5 (Agonist) percent activity: concentration or dose not given beside the values; conditions: agonist mode; dopamine as control
Text: as §2, §3
Table 2 depicts the results of evaluating the cannabinoid compounds to act as an agonist for the dopamine receptor DRD5. The same experimental procedure as used for HCRTR1 and HCRTR2 agonist testing (Table 1) was followed with the substitution of dopamine as the control for the DRD5 receptor.

Chain of dopamine receptor DRD5 (P21918 whole entry): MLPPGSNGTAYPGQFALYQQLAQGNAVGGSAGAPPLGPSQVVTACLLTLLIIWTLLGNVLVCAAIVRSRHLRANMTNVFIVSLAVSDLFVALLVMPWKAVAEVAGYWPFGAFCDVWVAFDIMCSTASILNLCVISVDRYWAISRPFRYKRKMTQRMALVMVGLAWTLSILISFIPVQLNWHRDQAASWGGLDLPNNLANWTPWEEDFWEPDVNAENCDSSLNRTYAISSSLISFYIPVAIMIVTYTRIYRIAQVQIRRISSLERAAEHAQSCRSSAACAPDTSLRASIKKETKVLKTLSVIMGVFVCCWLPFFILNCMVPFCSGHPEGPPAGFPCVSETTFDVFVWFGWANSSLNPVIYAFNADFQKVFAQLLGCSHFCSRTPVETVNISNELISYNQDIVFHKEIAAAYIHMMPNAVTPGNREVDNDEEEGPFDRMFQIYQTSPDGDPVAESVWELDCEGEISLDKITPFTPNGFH

Compound	HCRTR1 (Agonist) percent activity [1] [%]	HCRTR2 (Agonist) percent activity [2] [%]	antagonist effect on HCRTR1 (in words) [3]	HCRTR1 (Antagonist) percent inhibition [3] [%]	antagonist effect on HCRTR2 (in words) [4]	HCRTR2 (Antagonist) percent inhibition [4] [%]	DRD5 (Agonist) percent activity [5] [%]
C=C(C)[C@@H]1CCC(C)=C[C@H]1c1c(O)cc(CCCCC)c(C(=O)O)c1O [CBDA, cannabidiolic acid]	1	0	do not demonstrate meaningful activity	2	do not demonstrate meaningful activity	10	5
CCCCCc1cc(O)c2c(c1)OC(C)(C)c1ccc(C)cc1-2 [CBN, cannabinol]	1	7	antagonist effect; also recorded: acted as an antagonist	95	antagonist effect; also recorded: acted as an antagonist	94	3
CCCCc1cc(O)c(CC=C(C)CCC=C(C)C)c(O)c1 [CBG-C4, cannabigerol butyl]	4	6	antagonist effect; also recorded: acted as an antagonist	84	antagonist effect; also recorded: acted as an antagonist	45	6
CCCc1cc(O)c(C/C=C(\C)CCC=C(C)C)c(O)c1 [CBGV, cannabigerivarin]	4	2	demonstrate activity against only HCRTR1; also recorded: acted as antagonists	44	demonstrate activity against only HCRTR1; also recorded: did not act as antagonists	12	6
CCCc1cc(O)c(C/C=C(\C)CCC=C(C)C)c(O)c1C(=O)O [CBGVA, cannabigerovarinic acid]	0	1	do not demonstrate meaningful activity	3	do not demonstrate meaningful activity	12	0
CCCCCc1cc(O)c(C/C=C(\C)CCC=C(C)C)c(O)c1 [CBG, cannabigerol]	3	4	antagonist effect; also recorded: acted as an antagonist	98	antagonist effect; also recorded: acted as an antagonist	68	9
